In ChEMBL document CHEMBL1142548, “Time-dependent intracellular trafficking of FITC-conjugated epigallocatechin-3-O-gallate in L-929 cells” (Bioorg Med Chem, 2008):

Test system: L1210
Assay: Cytotoxicity against mouse L1210 cells after 24 hrs by WST8 assay
Assay type: functional, cell-based
Settings: L1210, 24 h

Structure (SMILES) | IC50 [µM]
O=C(O[C@@H]1Cc2c(O)cc(O)cc2O[C@@H]1c1cc(O)c(O)c(O)c1)c1cc(O)c(O)c(O)c1 [EPIGALOCATECHIN GALLATE] | 690
O=C(O[C@@H]1Cc2c(O)cc(O)cc2O[C@@H]1c1cc(O)c(O)c(O)c1)c1cc(O)c(O)c(OC(=S)Nc2ccc3c(c2)C(=O)OC32c3ccc(O)cc3Oc3cc(O)ccc32)c1 | ≥ 325
O=C1OC2(c3ccc(O)cc3Oc3cc(O)ccc32)c2ccc(N=C=S)cc21 | 700
